The values that follow come from PubChem BioAssay AID179 (DTP/NCI, 2004).

Broadly, the EC50 is the concentration at which the effect is half-maximal. As a reminder, the IC50 is the concentration needed to halve the response being measured. Low readings indicate inhibition by little substance, high ones a need for much substance.

SMILES strings stand for the structures. Values joined by “and” are separate entries in the source; they are usually repeats but may differ in a detail not shown here. Equal values may be shown once. Active and inactive are the calls of the source.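 How the source made its calls: active means compounds giving half or more protection of infected cells from virus-caused growth loss, again on retest; inactive means the rest.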 Where a SMILES comes first, the peptide text is derived from it. Bridges are numbered along the chain shown (N, C = ends). The star is where a group is joined. Cbz = O=C(OCc1ccccc1)*

This experiment deals with CEM cells HIV-1 protection, formazan growth assay. Put plainly: NCI AIDS Antiviral Assay. The conditions noted are these: for IC50: measured here: growth of uninfected CEM cells. In short, it runs like this: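 Protection of CEM cells against HIV-1 measured as cell growth via soluble formazan read-out, with five concentrations tested on both infected and uninfected cells; failure to protect may reflect toxicity.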

In the case of `O=C(O)CC[P+](c1ccccc1)(c1ccccc1)c1ccccc1`, the EC50 was greater than 200 µM; the IC50 is 21.9 µM and > 200 µM.
As to `COc1ccc(N=Nc2c(N)nn3cc4c(nc23)-c2ccccc2CC4)cc1`, the EC50 is greater than 200 µM and the IC50 is 2.57 µM.
`CCCC(=O)Nc1cc([N+](=O)[O-])c([N+](=O)[O-])cc1OC`: the EC50 is greater than 200 µM and the IC50 was determined as 10.7 µM.
Taken in the same sequence, the figures for `CCCC(CCN)(CCN)[N+](=O)[O-]` were greater than 200 µM and greater than 200 µM.
Consider `CO/N=C(\C(=O)Nc1cncs1)c1csc(NC(c2ccccc2)(c2ccccc2)c2ccccc2)n1`, for which the EC50 was greater than 200 µM and the IC50 was greater than 200 µM.
`Cn1cnc2c1S(=O)(=O)NC(=S)N2`: the EC50 is greater than 1150 µM and the IC50 is greater than 1150 µM.
Consider `C=CC1(C)CCC2C(=CCC3C2(C)CC(O)C(O)C3(C)COC2OC(C(=O)O)C(O)C(O)C2O)C1` (stereo not drawn) (tested in a mixture with another compound), for which the EC50 is greater than 100 µM and the IC50 is greater than 100 µM.
As for `Cc1cccc(C(C)(C)C)c1NC(=O)C(C#N)C1=C(Cl)C(=O)c2ccccc2C1=O` (stereo not drawn), the EC50 was greater than 107 µM and the IC50 is 22.9 µM.
In the same order, the values of `NNS(=O)(=O)c1ccc(OCC(=O)O)cc1` are greater than 200 µM and 182 µM.
In the same order, the values of `CC(C)Oc1c(N(Cc2ccccc2)c2ccccc2C2SCCCS2)c(=O)c1=O` are greater than 200 µM and 1.17 µM.
In the same order, the values of `Cc1cccc2c1N(C(=O)/C=C\C(=O)O)C(c1c(C)[nH]c3ccccc13)C2` (stereo not drawn) are greater than 138 µM and 75.9 µM.
Take `Cc1cc2ncn(C3CCCCO3)c2cc1C` (stereo not drawn): the EC50 was greater than 200 µM and the IC50 was greater than 200 µM.
Regarding `CC(C)(C)c1ccc(-c2nc3ccc([N+](=O)[O-])cc3c(=O)o2)cc1`, the EC50 is greater than 200 µM and the IC50 was 8.91 µM.
Taken in the same sequence, the figures for `COC12OCC(OC1OCc1ccccc1)C1OC(C)(C)OC12` (stereo not drawn) were greater than 200 µM and 105 µM.
In the same order, the values of `CCC1Oc2c(CC=C(C)C)c(OC(C)=O)c(C(OC(C)=O)C(C)CC)c3oc(=O)cc1c23` (stereo not drawn) are greater than 200 µM and 95.5 µM.
In the same order, the values of `O=C(O)c1cc(O)c2c(c1)Cc1cccc(O)c1C2=O` are greater than 200 µM and 28.8 µM.
Turning to `COc1cc(C2c3cc4c(c(O)c3C[C@H]3COC(=O)[C@@H]23)OCO4)cc(OC)c1OC` (stereo partly drawn), the EC50 was greater than 200 µM and the IC50 came to 0.468 µM.
In the same order, the values of `Cc1cc(NS(=O)(=O)c2ccc(Nc3c4ccccc4nc4c(C(=O)Nc5ccc(S(N)(=O)=O)cc5)cccc34)cc2)no1` are 25.1 µM and 50.1 µM.
Consider `O=C1CC2C3CC1C2C(=O)O3` (stereo not drawn), for which the EC50 was greater than 200 µM and the half-inhibitory concentration (IC50) was greater than 200 µM.
Turning to `CC1CCCC(C(O)CC2CC(=O)N(c3ccccc3)C(=O)C2)C1=O` (stereo not drawn), the EC50 was greater than 200 µM and the IC50 is greater than 200 µM.
On to `Cc1cc(=O)oc2c1c(C)nn2-c1cccc(Cl)c1`, for which the EC50 is greater than 95.5 µM and the IC50 worked out at 89.1 µM.
In the same order, the values of `Cn1cc(S(=O)(=O)NC(=O)Nc2ccc(Cl)cc2)c(=O)c2ccc(Cl)cc21` are greater than 200 µM and 36.3 µM.
Taken in the same sequence, the figures for `CC1C[C@@H]2C(=O)NC(=O)[C@@H]2c2c1c1ccccc1n2C` (stereo partly drawn) were greater than 331 µM and 214 µM.
Taken in the same sequence, the figures for `O=C(O)CCC(NC(=O)c1ccc(Oc2nc3ccccc3nc2C(=O)O)cc1)C(=O)O` (stereo not drawn) were greater than 200 µM and greater than 200 µM.
Consider `BrCCCCCOc1ccc(-c2c3ccccc3c(-c3ccc(OCCCCCBr)cc3)c3ccccc23)cc1`, for which the EC50 is greater than 100 µM and the IC50 was greater than 100 µM.
As to `O=c1[nH]c2cn(-c3ccccc3)nc2c(=O)n1O`, the EC50 was greater than 200 µM and the IC50 amounted to 3.55 µM.
Regarding `COC(=O)[C@H](Cc1c[nH]c2ccccc12)NP(=O)(O)OCC1C=CC(n2cc(C)c(=O)[nH]c2=O)O1` (stereo partly drawn), the EC50 is 28.2 µM and the IC50 is greater than 200 µM.
`CC[n+]1[b-](C(C)(C)C)n(/N=C(\C)C(C)(C)C)[b-](C(C)(C)C)[n+]1CC`: the EC50 is greater than 200 µM and the IC50 was 31.6 µM.
`Cc1c(Cc2ccccc2)n(C(C)OCCO)c(=O)[nH]c1=O` (stereo not drawn): the EC50 was greater than 200 µM and the IC50 was greater than 200 µM.
Take `O=C(O)c1cccc(S(=O)(=O)NN2C(=O)CSC2c2ccccc2)c1` (stereo not drawn): the EC50 is greater than 200 µM and the IC50 is greater than 200 µM.
As to `NNC(=O)c1n[nH]n(N)c1=S`, the EC50 is greater than 200 µM and the IC50 was greater than 200 µM.
On to `[CH3][Sn]([CH3])([CH3])[O]C(=O)C(O)c1ccccc1` (stereo not drawn), for which the result was inactive.
Regarding `CCCCc1ccc(Nc2nc3c(ncn3COCCO)c(=O)[nH]2)cc1`, the EC50 is greater than 200 µM and the IC50 was greater than 200 µM.
Consider `OC1CCOc2ccccc21` (stereo not drawn), for which the EC50 is greater than 200 µM and the IC50 is greater than 200 µM.
With `Nc1nc2ncn(O)c2c(=O)[nH]1`, the EC50 was greater than 112 µM and the IC50 was 0.347 µM.
Consider `CC(C)c1ccc(/C=C2\CSCC3=C2NC(=S)NC3c2ccc(C(C)C)cc2)cc1` (stereo not drawn), for which the EC50 was greater than 200 µM and the IC50 was 42.7 µM.
Regarding `c1ccc2c(c1)[nH]c1c(N3CCOCC3)nnc(N3CCOCC3)c12`, the EC50 was greater than 200 µM and the IC50 was greater than 200 µM.
Take `Nc1ccc2c(c1)C1(NC(=O)NC1=O)c1cc(N)ccc1-2`: the EC50 is greater than 200 µM and the IC50 is greater than 200 µM.
Take `O=C1CC(C[C@H](O)C2CCCCC2O)CC(=O)N1Cc1ccccc1` (stereo partly drawn): the EC50 is greater than 200 µM and the IC50 is greater than 200 µM.
As for `C/C=C1\Oc2ccc(OC)cc2S1(=O)=O`, the EC50 was 17 µM and the IC50 was found to be 31.6 µM.
On to `Nc1nc(NCC2(CO)CC(CCc3ccccc3)C2)cc(=O)[nH]1` (stereo not drawn), for which the EC50 is greater than 200 µM and the IC50 stood at 64.6 µM.
As to `OCCN1CCN2C=C(C3CCCC4N(CCO)CCN34)CCC21` (stereo not drawn), the EC50 was greater than 741 µM and the IC50 turned out to be 33.9 µM.
As for `Cc1ccc(C(=O)Nc2ccc(CP(=O)(O)O)cc2CP(=O)(O)O)cc1NC(=O)Nc1cc(C(=O)Nc2ccc(CP(=O)(O)O)cc2CP(=O)(O)O)ccc1C`, the EC50 was greater than 200 µM and the IC50 was greater than 200 µM.
With `CCN(CC)CC(=O)NC1c2ccccc2Sc2c(C)cccc21` (stereo not drawn), the EC50 is greater than 148 µM and the IC50 was found to be 60.3 µM.
In the same order, the values of `Cn1ccc2c(c1=O)C(=O)OC2(C)C` are greater than 200 µM and greater than 200 µM.
For `Cc1ccc(NC(=O)CCc2nnc(N)o2)cc1`, the EC50 is greater than 380 µM and the IC50 is greater than 380 µM.
For `CC1(C)CC(Nc2ccc(Nc3ccccc3)cc2)CC(C)(C)N1`, the EC50 was greater than 562 µM and the IC50 was 4.27 µM.
Take `NC(N)=NNC(O)(C(=O)O)C(=O)O`: the EC50 was greater than 200 µM and the IC50 is greater than 200 µM.
On to `O=C(Oc1ccc(N=Cc2ccc3c(c2)OCO3)cc1)Oc1ccc(N=Cc2ccc3c(c2)OCO3)cc1`, for which the result was inactive.
Take `CC1=C(c2cc(C(=O)Nc3ccc(Cl)c(Cl)c3)nc(N)n2)Sc2ccccc2N1`: the EC50 is greater than 81.3 µM and the IC50 is greater than 81.3 µM.
For `O=C(O)c1cc2cc(Br)ccc2cc1O`, the EC50 was greater than 200 µM and the IC50 is 85.1 µM.
In the case of `O=c1cnc2c(ccc3ccccc32)[nH]1`, the EC50 was greater than 182 µM and the IC50 was greater than 182 µM.
`S=C(S)N(Cc1ccccc1)Cc1ccccc1`: the EC50 is greater than 200 µM and the IC50 was determined as 24.5 µM.
Turning to `O=C(Nc1ccn(C2CC(O)C(CO)O2)c(=O)n1)c1ccccc1` (stereo not drawn), the EC50 was greater than 200 µM and the IC50 is greater than 200 µM.
As for `Cc1cc2nc3c4ccccc4n(C)c3nc2cc1C`, the EC50 was greater than 7.59 µM and the IC50 turned out to be 5.25 µM.
Take `COc1cccc(CCCNC(=O)Cc2cc(OC)c(OC)cc2CO)c1`: the EC50 is greater than 200 µM and the 50% inhibitory concentration (IC50) came to 14.5 µM.
Take `CS[C@]12[C@@H]3C(=O)N(C)C(=O)[C@@H]3[C@](C)(C(=O)N1C)C(=O)N2c1ccccc1`: the EC50 was greater than 200 µM and the IC50 is greater than 200 µM.
On to `CCN(CC)/[N+]([O-])=N/OC`, for which the outcome was inactive.
Consider `CN(C)CCN(C)c1ccc2c(=O)n(CCN(C)C)c(=O)n3c4ccccc4c(=O)c1c23`, for which the EC50 was greater than 0.2 µM and the 50% inhibitory concentration (IC50) is 0.11 µM.
In the same order, the values of `COC(=O)C1CCC(=O)NCCCCC(NC(=O)OCc2ccccc2)C(=O)N1` (stereo not drawn) (Cbz-Lys-Glu-OMe; lactam 1-2; configuration not given here) are greater than 200 µM and greater than 200 µM.
In the case of `CN=C(NC)c1ncn(C2OC(CO)C(O)C2O)n1` (stereo not drawn), the outcome was inactive.
Take `C[n+]1c(-c2ccc(/C=N/NC(=O)c3ccc(C(=O)N/N=C/c4ccc(-c5cn6ccccc6[n+]5C)cc4)cc3)cc2)cn2ccccc21`: the EC50 is greater than 3.89 µM and the IC50 was determined as 0.0224 µM.
Consider `C/C=C/C=N/N(c1nnc(-c2ccccc2)c(-c2ccccc2)n1)S(=O)(=O)c1ccc(C)cc1`, for which the EC50 was greater than 21.4 µM and the IC50 was determined as 7.59 µM.
Turning to `O=Cc1ccc(-c2ccc(S(=O)(=O)O)cc2)o1`, the EC50 is greater than 200 µM and the IC50 is 93.3 µM.
In the same order, the values of `COc1cc(Nc2nc3cc(C(F)(F)F)ccc3nc2C)cc(OC)c1OC` are greater than 60.3 µM and 31.6 µM.
Consider `CC(=O)NNc1nc(C)c(C(=O)NNC(=O)C(=O)Nc2c(C)cccc2C(C)(C)C)s1`, for which the EC50 is greater than 151 µM and the IC50 stood at 26.3 µM.
Taken in the same sequence, the figures for `O=C1NC(=O)C(=Cn2c(=S)sc3ccccc32)C(=O)N1` were greater than 200 µM and greater than 200 µM.
With `CCOc1ccc(N2CC(=O)N3CCCN3C(=O)C2)cc1`, the EC50 was greater than 123 µM and the IC50 was greater than 123 µM.
On to `CCOC(=O)c1c(C(F)(F)F)c2cc(C(=O)C(F)(F)F)c3ccccc3c2n1C`, for which the EC50 is greater than 42.7 µM and the IC50 was greater than 42.7 µM.
With `Cn1ccnc1.Cn1ccnc1.NCCN.[Cl-].[Pt+4]`, the EC50 is greater than 200 µM and the IC50 is greater than 200 µM.
`CC(O)c1c2c(cc3c1CC1(C3)Cc3cc4c(c(C(C)O)c3C1)CCC4)CCC2` (stereo not drawn): the EC50 was greater than 200 µM and the IC50 is 9.55 µM.
